In patent EP3290412A1, “HIV-1 NUCLEOCAPSID INHIBITORS” (Università degli Studi di Siena, priority 2016, dated 2018):

Experiments:
[1] = test system: HIV-1 reference strain NL4-3; test: MonoCycle assay (TZM-bl cells); assay type: cell-based
Method in brief: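 TZM-bl cells (20,000/well) were infected with NL4-3 in the presence of five-fold serial inhibitor dilutions. After 48 h, cells were lysed and luciferase luminescence (RLU) was counted. IC50 was derived from the RLU data.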

[2] = test system: HIV-1 reference strain NL4-3; test: BiCycle assay (MT-2 then TZM-bl cells); assay type: cell-based
Method in brief: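 MT-2 cells were infected with NL4-3 in the presence of five-fold compound dilutions. After 72 h, the supernatant was passed to TZM-bl cells. Two days later, luciferase luminescence was read and IC50 calculated, giving a readout that spans the whole replication cycle.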

[3] = target: T1, full length (1-55) HIV-1 NCp7 (Human immunodeficiency virus type 1 group M subtype B, UniProt P12493); test: Electromobility Shift Assay (EMSA), competition for ssDNA binding; conditions: NCp7 300 nM, M13mp18 ssDNA; positive = >25% inhibition at 100µM
T1 construct: recombinant full length (1-55) HIV-1 NCp7 proteins; made in house
Method in brief: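 Recombinant NL4-3 NCp7 (300 nM in the pre-mix) was combined with compound in 20 mM Tris-HCl pH 7.4, 2 mM MgCl2, 100 mM NaCl, 1 mM DTT, then M13mp18 ssDNA was added for 25 min at 37 °C. Complexes were run on 1% agarose/0.5x TBE and stained with SybrGold. IC50 is the concentration at which bound ssDNA migrated 50% of the bound–unbound distance (triplicate).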

[4] = Human immunodeficiency virus 1, NL43, TZM-bl cells, NL4-3, 48 hours, read-out: Mono Cycle IC50
[5] = Human immunodeficiency virus 1, NL43, MT-2 cells 72 hours then TZM-bl cells two days, NL4-3, read-out: BiCycle IC50
[6] = Human immunodeficiency virus 1, NL43, TZM-bl, 48 h, read-out: Mono Cycle IC50 nM
[7] = Human immunodeficiency virus 1, NL43, TZM-bl, read-out: BiCycle IC50 nM

| Structure (SMILES) | IC50 [1, 4] [nM] | IC50 [2, 5] [nM] | EMSA screening results [3] | IC50 [1, 6] [nM] | IC50 [2, 7] [nM] | EC50 ([2]; Human immunodeficiency virus 1, NL43, TZM-bl, read-out: Mean EC50 (nM)) [nM] |
| --- | --- | --- | --- | --- | --- | --- |
| C[C@@H](NC(=O)c1nc(-c2ncccc2C(F)(F)F)nc(O)c1O)C1CCCCC1 [Compound 30, (R)-N-(1-cyclohexylethyl)-5,6-dihydroxy-2-(3-(trifluoromethyl)pyridin-2-yl)pyrimidine-4-carboxamide] | > 50000 | 1730 | Positive (A compound showing >25% inhibition when tested at 100µM concentration is considered as "positive") |  |  |  |
| C[C@@H](NC(=O)c1nc(-c2nccc3ccccc23)nc(O)c1O)C1CCCCC1 [Compound 31, (R)-N-(1-cyclohexylethyl)-5,6-dihydroxy-2-(isoquinolin-1-yl)pyrimidine-4-carboxamide] |  |  | Positive (A compound showing >25% inhibition when tested at 100µM concentration is considered as "positive") | > 50000 | 100 | 100 |
| COc1ccc(-c2nc(O)c(O)c(C(=O)N[C@H](C)C3CCCCC3)n2)nc1 [Compound 32, (R)-N-(1-cyclohexylethyl)-5,6-dihydroxy-2-(5-methoxypyridin-2-yl)pyrimidine-4-carboxamide] |  |  | Positive (A compound showing >25% inhibition when tested at 100µM concentration is considered as "positive") | 8260 | 341 |  |
| C[C@@H](NC(=O)c1nc(-c2ncccc2Cl)nc(O)c1O)C1CCCCC1 [Compound 33, (R)-2-(3-chloropyridin-2-yl)-N-(1-cyclohexylethyl)-5,6-dihydroxypyrimidine-4-carboxamide] |  |  | Positive (A compound showing >25% inhibition when tested at 100µM concentration is considered as "positive") | > 50000 | 1220 |  |
| C[C@@H](NC(=O)c1nc(-c2cccc(Cl)n2)nc(O)c1O)C1CCCCC1 [Compound 34, (R)-2-(6-chloropyridin-2-yl)-N-(1-cyclohexylethyl)-5,6-dihydroxypyrimidine-4-carboxamide] |  |  | Negative | 14500 | 665 |  |
| C[C@@H](NC(=O)c1nc(-c2cc(OCc3ccccc3)ccn2)nc(O)c1O)C1CCCCC1 [Compound 35, (R)-2-(4-(benzyloxy)pyridin-2-yl)-N-(1-cyclohexylethyl)-5,6-dihydroxypyrimidine-4-carboxamide] | > 50000 | 530 | Positive (A compound showing >25% inhibition when tested at 100µM concentration is considered as "positive") |  |  |  |
| C[C@@H](NC(=O)c1nc(-c2ccc(C(F)(F)F)cn2)nc(O)c1O)C1CCCCC1 [Compound 36, (R)-N-(1-cyclohexylethyl)-5,6-dihydroxy-2-(5-(trifluoromethyl)pyridin-2-yl)pyrimidine-4-carboxamide] |  |  | Positive (A compound showing >25% inhibition when tested at 100µM concentration is considered as "positive") | 45400 | 132 |  |
| COc1cccc(-c2nc(O)c(O)c(C(=O)N[C@H](C)C3CCCCC3)n2)n1 [Compound 37, (R)-N-(1-cyclohexylethyl)-5,6-dihydroxy-2-(6-methoxypyridin-2-yl)pyrimidine-4-carboxamide] |  |  | Positive (A compound showing >25% inhibition when tested at 100µM concentration is considered as "positive") | 6910 | 332 |  |
| C[C@H](NC(=O)c1nc(-c2ccccn2)nc(O)c1O)C1CCCCC1 [Compound 38, (S)-N-(1-cyclohexylethyl)-5,6-dihydroxy-2-(pyridin-2-yl)pyrimidine-4-carboxamide] |  |  | Positive (A compound showing >25% inhibition when tested at 100µM concentration is considered as "positive") | 11200 | 154 |  |
| Cc1cccnc1-c1nc(O)c(O)c(C(=O)N[C@@H](C)C2CCCCC2)n1 [Compound 39, (S)-N-(1-cyclohexylethyl)-5,6-dihydroxy-2-(3-methylpyridin-2-yl)pyrimidine-4-carboxamide] |  |  | Negative | > 50000 | 76.5 |  |
| C[C@@H](NC(=O)c1nc(-c2cccc(C(F)(F)F)n2)nc(O)c1O)C1CCCCC1 [Compound 44, (R)-N-(1-cyclohexylethyl)-5,6-dihydroxy-2-(6-(trifluoromethyl)pyridin-2-yl)pyrimidine-4-carboxamide] | > 50000 | 936 | Positive (A compound showing >25% inhibition when tested at 100µM concentration is considered as "positive") |  |  |  |
| C[C@@H](NC(=O)c1nc(-c2cccc(N)n2)nc(O)c1O)C1CCCCC1 [Compound 45, (R)-2-(6-aminopyridin-2-yl)-N-(1-cyclohexylethyl)-5,6-dihydroxypyrimidine-4-carboxamide] |  |  | Positive (A compound showing >25% inhibition when tested at 100µM concentration is considered as "positive") | > 50000 | 1390 |  |
| C[C@@H](NC(=O)c1nc(-c2ccc(CNCc3ccccc3)cn2)nc(O)c1O)C1CCCCC1 [Compound 53, (R)-2-(5-((benzylamino)methyl)pyridin-2-yl)-N-(1-cyclohexylethyl)-5,6-dihydroxypyrimidine-4-carboxamide] |  |  | Negative | 38100 | 530 |  |
| C[C@@H](NC(=O)c1nc(-c2ccc(CO)cn2)nc(O)c1O)C1CCCCC1 [Compound 55, (R)-N-(1-cyclohexylethyl)-5,6-dihydroxy-2-(5-(hydroxymethyl)pyridin-2-yl)pyrimidine-4-carboxamide] |  |  | Positive (A compound showing >25% inhibition when tested at 100µM concentration is considered as "positive") | 9050 | 504 |  |
| CC1CCCCC1NC(=O)c1nc(-c2ccccn2)nc(O)c1O (stereo not shown) [Compound 59, 5,6-dihydroxy-N-(2-methylcyclohexyl)-2-(pyridin-2-yl)pyrimidine-4-carboxamide] |  |  | Positive (A compound showing >25% inhibition when tested at 100µM concentration is considered as "positive") | > 50000 | 408 |  |
| CCNCc1ccc(-c2nc(O)c(O)c(C(=O)N[C@H](C)C3CCCCC3)n2)nc1 [Compound 60, (R)-N-(1-cyclohexylethyl)-2-(5-((ethylamino)methyl)pyridin-2-yl)-5,6-dihydroxypyrimidine-4-carboxamide] |  |  | Negative | > 50000 | 694 |  |
| C[C@@H](NC(=O)c1nc(-c2ccc(NC(=O)OC(C)(C)C)cn2)nc(O)c1O)C1CCCCC1 [Compound 61, tert-butyl (R)-(6-(4-((1-cyclohexylethyl)carbamoyl)-5,6-dihydroxypyrimidin-2-yl)pyridin-3-yl)carbamate] |  |  | Positive (A compound showing >25% inhibition when tested at 100µM concentration is considered as "positive") | 7180 | 210 |  |
| CC(=O)Nc1ccc(-c2nc(O)c(O)c(C(=O)N[C@H](C)C3CCCCC3)n2)nc1 [Compound 62, (R)-2-(5-acetamidopyridin-2-yl)-N-(1-cyclohexylethyl)-5,6-dihydroxypyrimidine-4-carboxamide] |  |  | Positive (A compound showing >25% inhibition when tested at 100µM concentration is considered as "positive") | > 50000 | 252 |  |
| CC(C)(CNC(=O)c1nc(-c2ccccn2)nc(O)c1O)C1CCCC1 [Compound 63, N-(2-cyclopentyl-2-methylpropyl)-5,6-dihydroxy-2-(pyridin-2-yl)pyrimidine-4-carboxamide] |  |  | Positive (A compound showing >25% inhibition when tested at 100µM concentration is considered as "positive") | 11800 | 125 |  |
| C[C@H](CC1CCCCC1)NC(=O)c1nc(-c2ccccn2)nc(O)c1O [Compound 64, (R)-N-(1-cyclohexylpropan-2-yl)-5,6-dihydroxy-2-(pyridin-2-yl)pyrimidine-4-carboxamide] |  |  | Positive (A compound showing >25% inhibition when tested at 100µM concentration is considered as "positive") | 23700 | 210 |  |
| CC(NC(=O)c1nc(-c2ccccn2)nc(O)c1O)C1CCCC1 (stereo not shown) [Compound 65, N-(1-cyclopentylethyl)-5,6-dihydroxy-2-(pyridin-2-yl)pyrimidine-4-carboxamide] |  |  | Positive (A compound showing >25% inhibition when tested at 100µM concentration is considered as "positive") | > 50000 | 330 |  |
| COc1cc(-c2nc(O)c(O)c(C(=O)N[C@H](C)C3CCCCC3)n2)nc2ccccc12 [Compound 68, N-[(1R)-1-cyclohexylethyl]-2-(4-methoxyquinolin-2-yl)-5,6-bis(oxidanyl)pyrimidine-4-carboxamide] | 44300 | 240 | Positive (A compound showing >25% inhibition when tested at 100µM concentration is considered as "positive") |  |  |  |
